We go through 1 compound from article PMC11851430, “Workflow for E3 Ligase Ligand Validation for PROTAC Development” (ACS Chemical Biology, 2025).

One assay deals with T1, STK17A (Homo sapiens, UniProt Q9UEE5).
T1 construct: purchased in-house DSF panel (SGC-style construct names; the trailing A/B is a construct suffix)
T1 sequence (Q9UEE5 61-321): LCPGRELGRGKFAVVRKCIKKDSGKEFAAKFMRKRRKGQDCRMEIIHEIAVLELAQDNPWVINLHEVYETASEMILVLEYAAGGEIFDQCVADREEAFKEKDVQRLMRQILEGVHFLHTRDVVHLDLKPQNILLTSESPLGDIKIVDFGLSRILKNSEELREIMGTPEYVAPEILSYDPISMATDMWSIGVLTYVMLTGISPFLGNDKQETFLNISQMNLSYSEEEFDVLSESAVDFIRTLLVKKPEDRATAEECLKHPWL
Description: DSF assay. In kind it is binding. Particulars: 20 µM compound. In general terms: In DSF a fluorescence change marks the thermal transition of the protein.

The target in the next assay is T2, STK39A (Homo sapiens, UniProt Q9UEW8).
T2 construct: purchased in-house DSF panel (SGC-style construct names; the trailing A/B is a construct suffix)
Description: DSF assay. In kind it is binding. Particulars: 20 µM compound.

In a further assay the target is T3, RIOK2A (Homo sapiens, UniProt Q9BVS4).
T3 construct: purchased in-house DSF panel (SGC-style construct names; the trailing A/B is a construct suffix)
T3 sequence (Q9BVS4 whole entry): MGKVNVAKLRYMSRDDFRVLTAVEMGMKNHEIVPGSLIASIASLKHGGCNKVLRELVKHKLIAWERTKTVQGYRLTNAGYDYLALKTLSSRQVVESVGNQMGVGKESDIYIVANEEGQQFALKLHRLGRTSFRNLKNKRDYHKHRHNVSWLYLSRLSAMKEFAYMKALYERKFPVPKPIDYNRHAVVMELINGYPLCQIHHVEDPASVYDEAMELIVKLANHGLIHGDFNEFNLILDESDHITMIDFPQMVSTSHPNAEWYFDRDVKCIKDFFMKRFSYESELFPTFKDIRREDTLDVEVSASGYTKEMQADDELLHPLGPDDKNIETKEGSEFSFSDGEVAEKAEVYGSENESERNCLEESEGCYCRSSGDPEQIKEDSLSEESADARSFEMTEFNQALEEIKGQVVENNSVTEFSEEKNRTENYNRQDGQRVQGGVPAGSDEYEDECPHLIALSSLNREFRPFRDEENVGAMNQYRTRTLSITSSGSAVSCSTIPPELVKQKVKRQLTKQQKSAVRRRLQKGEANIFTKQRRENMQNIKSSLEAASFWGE
Description: DSF assay. In kind it is binding. Particulars: 20 µM compound.

The test system of assay [1] is kinase protein levels in MCF-7 cells. Description: TMT-labeled quantitative proteomics. In kind it is cell-based, human.
For assay [2], the target named is T4, kinase protein levels in MCF-7 cells (Homo sapiens, UniProt A0A096LP01).
T4 construct: endogenous in cells; host or cells: MCF-7
T4 sequence (A0A096LP01 whole entry): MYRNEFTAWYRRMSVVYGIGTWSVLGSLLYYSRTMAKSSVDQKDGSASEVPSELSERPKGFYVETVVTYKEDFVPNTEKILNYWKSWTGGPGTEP
Description: TMT-labeled quantitative proteomics. The class given is cell-based. Conditions: protein LINC00493.

Another assay has as its system Jurkat cells. Description: CellTiterGlo cell viability assay. Particulars: 24 h, mean of triplicates, ^b/^c values estimated. In kind it is cell-based, human. A digest of the protocol: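 Jurkat cells treated with compound titrations; viability read by CellTiter-Glo 2.0 luminescence after 10 min at room temperature, fitted to a four-parameter curve. Proteomics samples lysed in 2% SDS, 50 mM Tris pH 8.5, TCEP and CAA, sonicated, then analysed by label-free quantitation.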

Take `CCOC(=O)c1cc(Nc2cc(C3CC3)[nH]n2)nc(Nc2ccc(CC#N)cc2)n1` [compound 5]: the ΔTm at 20 µM on STK17A came to 6.97 °C; on STK39A, 5.53 °C; at RIOK2A it was 6.53 °C. In assay [1] (MCF-7 cells, 0.25 μM, 6 h), the “kinase downregulation profile compared with Jurkat cells” value was “comparable downregulation profiles”. Moreover, the “log2FC (compound/DMSO)” value is on record as 0.03286 in assay [1] (protein NBPF19;NBPF8;NBPF10;NBPF15;NBPF26;NBPF14;NBPF1;NBPF12, MCF, 0.25µM, set4); -0.1342 in assay [1] (protein NBPF19;NBPF8;NBPF26;NBPF14;NBPF12;NBPF10;NBPF15;NBPF1, MCF7, 2.5 µM, set3); 0.03432 in assay [1] (protein NUDT4;NUDT11;NUDT10, MCF, 0.25µM, set4); 0.1631 in assay [1] (protein UQCRHL;UQCRH, MCF, 0.25µM, set4); -0.4501 in assay [2] (MCF7, 2.5 µM, set3); 0.2815 in assay [2] (MCF, 0.25µM, set4). Moreover, the “P.Value (compound/DMSO)” value in assay [2] (MCF7, 2.5 µM, set3) is reported as 0.03457; in assay [2] (MCF, 0.25µM, set4), 0.002655. Also, in the assay on Jurkat cells, the “IC50±sd/μM (cell viability)” value is recorded as “single-digit micromolar”. Moreover, the IC50 in the assay on Jurkat cells (Homo sapiens, read-out: IC50±sd/μM (cell viability)) is 3.1 ± 1 µM.

As usually defined, the ΔTm is the change in melting temperature against a reference sample.
